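48-hour exposure; five concentrations; linearly interpolated endpoints. GI50 marks 50% less growth.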 The source made the active and inactive calls. Rule as the data show it: active = GI50 up to about 1.1 µM and inactive = higher.

Some test systems named below: DMS-273; HOP-18; KM-20L2; DMS-114; SNB-78; XF498; LXFL 529; DU-145; RXF 631.
Common to all, as to assay: inhibition of tumour cell growth, NCI panel, 48 h

Regarding `C=C1CC(OC)(C(OC)C(=O)N[C@H]2OCO[C@H]3C2O[C@H](C[C@@H](COC)OC)C(C)(C)C3OC)O[C@H](C)[C@@H]1C` (some centres undefined), the GI50 is 0.875 µM (active) with DMS-273; 2.08 µM (inactive) in the assay on HOP-18; 0.931 µM (active) with KM-20L2; 1.22 µM (inactive) in the assay on DMS-114; 1.11 µM (active) in the assay on SNB-78; 0.604 µM (active) in the assay on XF498.
As for `O=C1C2c3[nH]c4ccccc4c3C3CCSCC3C2C(=O)N1c1ccccc1` (centres undefined), the GI50 in the assay with LXFL 529, with DMS-273, with KM-20L2, in the assay with SNB-78 and with XF498 was > 100 µM (inactive) in each case.
For the compound `COC12OC3(C4OC41)C(C(=O)O[C@H]3CO[Si](C)(C)C(C)(C)C)C2C(=O)Oc1ccccc1` (some centres undefined), the GI50 in the assay on DU-145 is > 100 µM (inactive).
Same read-out and setting: in the case of `CC(C)N(C)C(=O)C12C3C4C1C1C2C3C41C#N` (centres undefined) it was > 100 µM (inactive).
Still for that read-out and setting: then `COCCN(C(=O)c1ccccc1)C1CCC(=O)c2[nH]c3ccccc3c21` (centres undefined), with 14.7 µM (inactive); and `CCOC(=O)c1csc(NC(=O)CN2CCCC2)n1`, with > 100 µM (inactive).
For the compound `O=C1OCC=C1COC1OC(CO)C(O)C(O)C1O` (centres undefined), the GI50 in the assay on DU-145 was > 100 µM (inactive).
On to `CC(=O)O[C@H]1CC[C@@]2(C)[C@H](CC[C@@H]3[C@@H]2CC[C@]2(C)[C@@H](c4ccc(=O)oc4)C[C@H]4O[C@]342)C1`, for which the GI50 is 0.458 µM (active) in the assay with DMS-273; 0.423 µM (active) in the assay with HOP-18; 1.38 µM (inactive) in the assay with KM-20L2; 0.119 µM (active) in the assay on DMS-114; 0.404 µM (active) in the assay with SNB-78; 1.3 µM (inactive) in the assay on XF498.
Regarding `O=S(O)CCCSSSCCCS(=O)O`, the GI50 in the assay on LXFL 529, with RXF 631, in the assay with KM-20L2, in the assay on DMS-114, with SNB-78 and in the assay with XF498 was > 100 µM (inactive) throughout.
On to `Cn1c(=O)n2n(c1=O)C(C)(C13CC4CC(CC(C4)C1)C3)C13CC4CC(CC1C4)CC23` (centres undefined), for which the GI50 in the assay on DU-145 was > 100 µM (inactive).
Consider `C=C(/C=C/C=C(/CCC=C(C)C)COC(C)=O)[C@@H]1CC[C@]2([C@H](CCCO)/C(=C(/C)C=O)CC[C@]2(C)O)[C@@H]1O`, for which the GI50 was 2.27 µM (inactive) in the assay on DMS-273; 11.5 µM (inactive) in the assay with HOP-18; 14.4 µM (inactive) with KM-20L2; 14.2 µM (inactive) in the assay with DMS-114; > 10 µM (inactive) in the assay with SNB-78.
Consider `CN(C)c1cccc2c1C(=O)C=CC21CCc2ccc(N(C)C)c3c(N(C)C)ccc1c23` (centres undefined), for which the GI50 in the assay with DU-145 was 5.26 µM (inactive).
On the same count and under the same terms, in the case of `COc1ccc(NC(=S)c2ccc([N+](=O)[O-])o2)cc1` it was 3.17 µM (inactive); in that of `Cc1cc2nc3c(C(O)CO)nn(-c4ccccc4)c3nc2cc1C` (centres undefined), 15.4 µM (inactive).
For `CC(=O)NC1=C(C)C(=O)c2c(nc3n2CCC3OC(=O)c2ccccc2)C1=O` (centres undefined), the GI50 in the assay with LXFL 529 was 1.56 µM (inactive); in the assay on DMS-273, 2.07 µM (inactive); in the assay with DMS-114, 0.805 µM (active); in the assay on SNB-78, 2.71 µM (inactive).
Consider `CC(C)NC(=O)OCc1nnn2c1CCC2`, for which the GI50 in the assay with LXFL 529, in the assay on KM-20L2, in the assay with SNB-78 and in the assay on XF498 was > 100 µM (inactive) each time.
Take `Cc1nc2ccccc2c(=O)n1CC(=O)O`: the GI50 in the assay with DMS-273, in the assay with HOP-18, with KM-20L2, in the assay with DMS-114, with SNB-78 and with XF498 was > 100 µM (inactive) each time.
Take `Cc1c(Cc2ccccc2)n(COCCCO)c(=O)[nH]c1=O`: the GI50 in the assay with DU-145 is > 100 µM (inactive).
Take `CCOC(O)C(F)(F)F` (centres undefined): the GI50 in the assay on DU-145 was > 100 µM (inactive).
Turning to `CCOC(=O)c1csc(NC(=O)CCN2CCN(C)CC2)n1`, the GI50 with DU-145 is > 100 µM (inactive).
Consider `O=C1CCCCCCCCCCOC(=O)CCCCCCCCCCO1`, for which the GI50 with LXFL 529 was > 100 µM (inactive); in the assay on DMS-273, > 100 µM (inactive); with HOP-18, > 100 µM (inactive); with KM-20L2 it was > 10 µM (inactive); in the assay on DMS-114, > 100 µM (inactive); in the assay on SNB-78 it was > 100 µM (inactive).
Turning to `O=C1CC2(CCC(O)(c3ccc4ccccc4c3)C(C(=O)c3ccc4ccccc4c3)C2)C(=O)c2ccccc2N1` (centres undefined), in the assay with DU-145, the GI50 was > 100 µM (inactive).
The same measure, in the same setting: then `C[N+]1(C)CN(c2ccccc2)C2(CCN(CCCC(=O)c3cccs3)CC2)C1=O`, with > 100 µM (inactive); and `c1ccc2c(c1)c1c(n2CCOCCCN2CCCCC2)CCCC1`, with 44.7 µM (inactive).
For `O=C(c1ccccc1)c1cc(Cl)ccc1NCn1nnc2ccccc21`, the GI50 was 98.9 µM (inactive) in the assay on LXFL 529; 39.1 µM (inactive) with DMS-273; > 100 µM (inactive) in the assay on HOP-18; 60.4 µM (inactive) in the assay with KM-20L2; 31.5 µM (inactive) in the assay on DMS-114; > 100 µM (inactive) with XF498.
For the compound `O=C1c2cc3c(cc2CC12Cc1ccc4c(c1C2=O)CCC4)CCCC3` (centres undefined), the GI50 in the assay on DU-145 was > 100 µM (inactive).
`Nc1ccc2c(c1)C1=NNC(=O)CC1C2` (centres undefined): the GI50 is > 100 µM (inactive) in the assay with DMS-273; > 77.6 µM (inactive) in the assay on HOP-18; > 100 µM (inactive) in the assay on KM-20L2; > 100 µM (inactive) in the assay on DMS-114; > 100 µM (inactive) in the assay with SNB-78; > 100 µM (inactive) in the assay on XF498.
Regarding `CC12CCC3C(CCC4CC(OC(=O)Cc5ccc(N(CCCl)CCCl)cc5)CCC43C)C1CCC(=O)N2` (centres undefined), the GI50 with LXFL 529 was 16.2 µM (inactive); with DMS-273, 12.9 µM (inactive); in the assay on HOP-18, 17.3 µM (inactive); in the assay with KM-20L2 it was 17.4 µM (inactive); in the assay on DMS-114, 12.8 µM (inactive); with SNB-78, 24.4 µM (inactive). The GI50 with XF498 was 16.5 µM (inactive).
Take `Cc1cc(S(=O)(=O)NC2=NCc3nc4ccccc4n32)c(S)cc1Cl`: the GI50 with DU-145 is 31.2 µM (inactive).
